Source: patent US11612634B2 (priority 2020, dated 2023)
Entries after “also recorded” stand apart in the source; their conditions may differ.

Key:
[1] = tested on: Carr-induced inflammatory pain rat model; experiment: Analgesic effect on mechanical hyperalgesia (PWT) in Carr-induced inflammatory pain rat model; type: in vivo
Experimental: The mechanical hyperalgesia of rats was measured by 38500-pressure application measurement (PAM) system (Ugo Basile Biological Research Apparatus, Comerio-Varese, Italy), which consisted of a hand-held part and an integrated electronic part. The hand-held part was a force sensor which was designed according to a Randall-Selitto algesimeter. The integrated electronic part was configured to automatically record a maximum PWT applied to the left hind paw of the rats.
The Carr-induced inflammatory pain model was built according to a published method (Alessandri-Haber N, et al. Neurosci. Vol 29(19), pp. 6217-6288, 2009) for evaluating an analgesic effect of drugs administered by intraplantar injection. […] Those rats with a PWT lower than 100 gf were considered to be a desired Carr-induced inflammatory pain model, those rats with the PWT higher than 100 gf was removed.
(S1) A total of 18 healthy adult SD rats, weighing 180-220 g, were selected, numbered on tails and placed in the same cage.
(S2) The rats were maintained in a measuring room for 2 h for adaptation.
The measurement was repeated 3-5 times for each rat with an interval of 5-10 min. The results of multiple PWT measurements were averaged as the Baseline (BL) (unit: g). After that, 6 μL of 1 wt % Carr was intradermally injected into the plantar surface of the hind paw to build an inflammatory pain rat model.
(S4) The PWT of the left hind paw of each rat was measured 1 h after the Carr injection. Rats with a higher inflammatory threshold and rats with a lower inflammatory threshold were mixed and equally divided into three groups (group A, group B and group C), each for six rats, such that any two groups of rats had similar distribution of inflammatory threshold. The groups A, B and C were intradermally injected with normal saline, 5 mg/kg of morphine and 2 μg/kg of the short peptide P10581, respectively, at the plantar surface of the left hind paw. 1 h later, the PWT of the left hind paw of the rats in each group was measured 3-5 times at an interval of 5-10 min. The multiple PWT measurement results were averaged as the practical PWT (unit: g). Then the drug was injected every 2 h according to the above-mentioned administration dose and time, and the corresponding PWT was recorded (six injections in total).
(1) 24 healthy adult SD rats, weighing 180-220 g, were selected, reinjected with 6 μL of a 1 wt % Carr solution and divided into 4 groups randomly and averagely (i.e., groups A-D). The group A was injected with normal saline; the group B was intradermally injected with 0.1 μg/kg of the short peptide P10581 through the plantar surface of the left hind paw; the group C was intradermally injected with 0.1 μg/kg of the short peptide P10581 and then with 5 mg/kg of morphine 30 min later through the plantar surface of the left hind paw; and the group D was intradermally injected with 0.05 μg/kg of the short peptide P10581, and then with 5 mg/kg of morphine 30 min later through the plantar surface of the left hind paw. 1 h later, the PWT of each group was recorded when the mechanical withdrawal of the left hind paw occurred, and each rat was measured 3-5 times at an interval of 5-10 min.
(2) The drug was injected every 2 h according to the above-mentioned administration dose and time (seven times in total), and the PWT was recorded.
(S1) A total of 20 healthy adult SD rats (half male and half female), weighing 180-220 g, were selected, numbered on tails and transferred to the same cage.
(S4) The PWT of the left hind paw of each rat was measured 1 h after the Carr injection.

[2] = tested on: bone cancer pain (BCP) rat model; experiment: Analgesic effect on mechanical hyperalgesia (PWT) in BCP rat model; type: in vivo; settings: for analgesic effect on BCP, low dose: repeated
Experimental: The tumor cell implantation (TCI) surgery was performed according to the method proposed by Medhurst S J, et al (Medhurst S. J., Walker K., Bowes M., Kidd B. L., Glatt M., Muller M., et al. (2002). A rat model of bone cancer pain. Pain 96 129-140). Walker 256 mammary gland carcinoma cells were transferred from a liquid nitrogen tank, thawed quickly in a 37° C. water bath and loaded into a centrifugal tube. Then the cells were added with an appropriate amount of normal saline and centrifuged at 1200 r/min for 6 min. The supernatant was discarded, and the cells were washed again, and suspended with phosphate buffered saline (PBS) to 1×10^7/mL. Young female SD rats, weighing 90-100 g, were intraperitoneally injected with 0.5 mL of mammary gland carcinoma cells, and a large amount of ascites occurred after 6-7 days of the injection. 10 mL of ascites was extracted and centrifuged for 5 min. The precipitate was washed with normal saline and then diluted with PBS to 1×10^5/mL. The rats were anesthetized with 10% chloral hydrate and shaved, and a 1-cm incision was made in the upper half skin of the right tibia to expose the bone surface with a minimal damage to the surrounding muscle or blood vessels. The bone was pierced with a 4 # needle at 5 mm below a knee joint distal to an epiphysial growth plate, and the needle was inserted to a depth so that it can be pushed into the medullary cavity. The needle was then removed, and a 10 […] needle containing cells to be injected was inserted into the medullary cavity, determining whether the needle was located in the medullary cavity by withdrawal. 5 mL (1×10^5/mL) of cancer cells were injected into the medullary cavity, and whether there are cells or blood leaking out from the injection site was observer.
The needle was kept in the medullary cavity for 1 min and then was withdrawn to enable the full cell spreading, and the injection site was pressed by a cotton swab for 1 min and closed with bone cement. The wound was sutured and treated with penicillin powder. The PWT was measured 3 days after modeling, where those rat models with a significant lower PWT were considered as successful BCP rat models, and the undesirable models were removed.
(S1) Healthy adult SD rats, weighing 180-220 g, were selected, numbered on tails and transferred to the same cage (15 rats in total).
(S2) The rats were maintained in the measuring room for 2 h for adaptation.
The measurement was repeated 3-5 times for each rat with an interval of 5-10 min, and the results were averaged. The rats were allowed to rest for several hours to build a BCP model.
Those unsuccessful models were removed, and on the 22nd day after modeling, the successfully-established models were randomly divided into 3 groups, where the groups A-C were subcutaneously with normal saline, […], respectively. 1.5 h later, the PWT of the right hind paw of each group was measured. Each rat was measured 3-5 times with an interval of 5-10 min, and the PWTs were averaged as the practical PWT (unit: g). The drug administration was performed twice a day (at 9:30 a.m. and 4:30 p.m.) for consecutive 4 days, and the PWT of each group before and after administration was measured in the morning every day. […]

[3] = 2 μg/kg i.d. plantar, every 2 h, six injections
[4] = 14.4 μg/kg, twice a day, 4 days

Row | Compound | analgesic effect on hyperalgesia, low dose ([1]; 0.1 μg/kg i.d., every 2 h, seven injections) | duration of analgesic effect ([1]; 2 μg/kg i.d. plantar, every 2 h) | analgesic effect on Carr-induced inflammatory pain threshold (PWT) [1, 3] | analgesic tolerance after repeated injection [1, 3] | analgesic effect on BCP, low dose ([2]; 0.2 μg/kg S.C.) | analgesic effect on BCP, low dose ([2]; 0.4 μg/kg S.C.) | analgesic effect on BCP [2, 4] | analgesic tolerance after repeated injection [2, 4] | analgesic effect / tolerance after repeated injection ([1]; rat, in vivo) | analgesic effect / tolerance after repeated injection ([2]; rat, in vivo) | analgesic effect on BCP ([2]; rat, in vivo)
1 | WKCNPNDDKCCRPKLKC [P10581] | no relieving effect on the hyperalgesia in rats | more than 12 h | completely reverse the Carr-induced inflammatory pain threshold | without developing the analgesic tolerance | no analgesic effect | no analgesic effect on BCP | significantly alleviate the BCP | without developing the analgesic tolerance |  |  | 
2 | CN1CC[C@]23c4c5ccc(O)c4O[C@H]2[C@@H](O)C=C[C@H]3[C@H]1C5 [morphine, reference compound] |  |  |  |  |  |  |  |  | gradually declined analgesic effect with the increase in the number of injections | disappeared at day 4; also recorded: completely lost the analgesic effect on BCP | significantly alleviated
